The record followed here is patent US8084484B2, “Vanilloid receptor ligands, pharmaceutical compositions containing them, process for making them, and use thereof for treating pain and other conditions” (Gruenenthal GmbH, priority 2007, dated 2011).

Molecules are shown by their SMILES.

One may read the Ki as the equilibrium dissociation constant of an inhibitor or competing ligand from its target.

Assay [1] deals with T1, vanilloid receptor (VR1), human VR1 gene (Homo sapiens, UniProt Q8NER1).
T1 construct: expressed in transfected cells; host or cells: CHO K1 cells (ECACC), stably transfected
Description: FLIPR Ca2+ influx assay on CHO K1 cells transfected with the VR1 gene, capsaicin stimulus (Pharmacological method II). To be noted: human, Ki by Cheng-Prusoff, ne = no effect, no response observed. The format is cell-based. Here is the method:
In addition, compounds according to the invention of the general formulae I, Ia, Ib, Ic, and Id, may be preferred which in the FLIPR assay with CHO K1 cells, which have been transfected with the human VR1 gene, in a concentration of less than 2000 nM, preferably of less than 1000 nM, particularly preferably of less than 300 nM, very particularly preferably of less than 100 nM, still more preferably of less than 75 nM, further preferably of less than 50 nM and most preferably of less than 10 nM, bring about a 50 percent displacement of capsaicin, which is present in a concentration of 100 nM. In this FLIPR assay, the influx of Ca^2+ is quantified with the assistance of a Ca^2+-sensitive dye (type Fluo-4, Molecular Probes Europe BV, Leiden, Netherlands) in a Fluorescent Imaging Plate Reader (FLIPR, Molecular Devices, Sunnyvale, USA) as described below.
II. Functional Investigations on Vanilloid Receptor (VR1)
The agonistic or antagonistic action of the substances to be investigated on the vanilloid receptor (VR1) may also be determined with the following assay. According to this assay, the influx of Ca^2+ through the channel is quantified with the assistance of a Ca^2+-sensitive dye (type Fluo-4, Molecular Probes Europe BV, Leiden, Netherlands) in a Fluorescent Imaging Plate Reader (FLIPR, Molecular Devices, Sunnyvale, USA).
Chinese hamster ovary cells (CHO K1 cells, European Collection of Cell Cultures (ECACC), Great Britain) are stably transfected with the VR1 gene. For functional investigations, these cells are plated out onto poly-D-lysine-coated, black 96-hole plates with a clear base (BD Biosciences, Heidelberg, Germany) at a density of 25,000 cells/hole. The cells are incubated overnight at 37° C. and 5% CO2 in a culture medium (Ham's Nutrient Mixture F12, 10 vol. % FCS (foetal calf serum), 18 μg/mL L-proline). On the following day, the cells are incubated with Fluo-4 (Fluo-4 2 μM, Pluronic F127 0.01 vol. %, Molecular Probes in HBSS (Hank's buffered saline solution), Gibco Invitrogen GmbH, Karlsruhe, Germany) for 30 minutes at 37° C. The plates are then washed 3 times with HBSS buffer and, after a further 15 minutes' incubation at room temperature, used for Ca^2+ measurement in the FLIPR. Ca^2+-dependent fluorescence is here measured before and after the addition of the substances to be investigated (wavelength λex=488 nm, λem=540 nm).
Quantification proceeds by measuring the highest fluorescence intensity (FC, fluorescence counts) over time.
The FLIPR protocol consists of 2 additions of substance. The substances to be tested (10 μM) are firstly pipetted onto the cells and Ca^2+ influx is compared with the control (capsaicin 10 μM) (% activation relative to the Ca^2+ signal after addition of 10 μM of capsaicin). After 5 minutes' incubation, 100 nM of capsaicin are added and the influx of Ca^2+ is likewise determined.
The percentage inhibition in comparison with the maximum achievable inhibition with 10 μM capsaicin is calculated.
On the basis of the percentage displacement by different concentrations of the compounds to be tested of the general formula I, IC50 inhibition concentrations which bring about 50% displacement of capsaicin were calculated. Ki values for the test substances were obtained by conversion using the Cheng-Prusoff equation (Cheng, Prusoff; Biochem. Pharmacol. 22, 3099-3108, 1973).

Another assay has as its target VR1/TRPV1 receptor (Homo sapiens, UniProt Q8NER1). Description: Inhibition of human VR1/TRPV1 following pH-stimulus. The format is cell-based. To be noted: ne = no effect, no response observed.
For another assay, the system named is male mice (NMRI). Kind of assay: Formaldehyde test in mice. It counts as in vivo. Conditions: 0.3 per os (dose unit not given), second phase. Here is the method:
III. b. Formaldehyde Test in Mice
The investigation for determining the antinociceptive action of the compounds according to the invention is performed using the formaldehyde test on male mice (NMRI, 20 to 30 g body weight, Iffa, Credo, Belgium).
In the formaldehyde test, according to D. Dubuisson et al., Pain 1977, 4, 161-174 a distinction is drawn between the first (early) phase (0 to 15 minutes after the formaldehyde injection) and the second (late) phase (15 to 60 minutes after the formaldehyde injection). […]
Then, the nociceptive behaviour of the animals is observed and recorded continuously for an investigation period of three minutes in the second (late) phase of the formaldehyde test (21 to 24 minutes after the formaldehyde injection). Quantification of the pain behaviour proceeds by summation of the seconds in which the animals licked and bit the relevant paw during the investigation period.
The comparison is made in each case with control animals, which, instead of compounds according to the invention, received vehicle (0.9% aqueous sodium chloride soln.) before administration of the formaldehyde. On the basis of the quantification of the pain behaviour, the substance effect in the formaldehyde test is determined in percent as a change compared with the corresponding control. […]

Assay [2] concerns the target T2, vanilloid receptor 1 (VR1/TRPV1) of the rat species (Rattus norvegicus, UniProt O35433).
T2 construct: The spinal column is removed from decapitated rats; endogenous in cells; host or cells: primary cells dissociated from rat dorsal root ganglia, cultured 2-3 days with NGF
Description: FLIPR Ca2+ influx assay on rat dorsal root ganglia cells, capsaicin stimulus (Pharmacological method I). To be noted: Ki by Cheng-Prusoff. The format is cell-based. From the text:
I. Functional Investigation on Vanilloid Receptor 1 (VR1/TRPV1 Receptor)
The agonistic or antagonistic action of the substances to be investigated on the vanilloid receptor 1 (VR1/TRPV1) of the rat species may be determined with the following assay. According to this assay, the influx of Ca^2+ through the receptor channel is quantified with the assistance of a Ca^2+-sensitive dye (type Fluo-4, Molecular Probes Europe BV, Leiden, Netherlands) in a Fluorescent Imaging Plate Reader (FLIPR, Molecular Devices, Sunnyvale, USA).
Complete medium: 50 mL HAMS F12 Nutrient Mixture (Gibco Invitrogen GmbH, Karlsruhe, Germany) with 10 vol. % FCS (foetal calf serum, Gibco Invitrogen GmbH, Karlsruhe, Germany, heat-inactivated); 2 mM L-glutamine (Sigma, Munich, Germany); 1 wt. % AA solution (antibiotic/antimycotic solution, PAA, Pasching, Austria) and 25 ng/ml NGF medium (2.5 S, Gibco Invitrogen GmbH, Karlsruhe, Germany)
Cell culture plate: poly-D-lysine-coated, black 96-hole plates with clear base (96 well black/clear plate, BD Biosciences, Heidelberg, Germany) are additionally coated with laminin (Gibco Invitrogen GmbH, Karlsruhe, Germany), by diluting laminin to a concentration of 100 μg/mL with PBS (Ca—Mg-free PBS, Gibco Invitrogen GmbH, Karlsruhe, Germany). Aliquots with a concentration of 100 μg/mL of laminin are taken and stored at −20° C. The aliquots are diluted with PBS in the ratio of 1:10 to 10 μg/mL of laminin and 50 μL of the solution is pipetted into each well of the cell culture plate. The cell culture plates are incubated for at least two hours at 37° C., the supernatant solution is aspirated and the wells are each washed twice with PBS. […]
The spinal column is removed from decapitated rats and this is placed directly in cold HBSS buffer (Hank's buffered saline solution, Gibco Invitrogen GmbH, Karlsruhe, Germany), i.e. located in an ice bath, combined with 1 vol. % (percent by volume) of an AA solution (antibiotic/antimycotic solution, PAA, Pasching, Austria). […] The resultant pellet is in each case redissolved in 250 μL of complete medium and the cell count is determined. […]

T2 sequence (O35433 whole entry): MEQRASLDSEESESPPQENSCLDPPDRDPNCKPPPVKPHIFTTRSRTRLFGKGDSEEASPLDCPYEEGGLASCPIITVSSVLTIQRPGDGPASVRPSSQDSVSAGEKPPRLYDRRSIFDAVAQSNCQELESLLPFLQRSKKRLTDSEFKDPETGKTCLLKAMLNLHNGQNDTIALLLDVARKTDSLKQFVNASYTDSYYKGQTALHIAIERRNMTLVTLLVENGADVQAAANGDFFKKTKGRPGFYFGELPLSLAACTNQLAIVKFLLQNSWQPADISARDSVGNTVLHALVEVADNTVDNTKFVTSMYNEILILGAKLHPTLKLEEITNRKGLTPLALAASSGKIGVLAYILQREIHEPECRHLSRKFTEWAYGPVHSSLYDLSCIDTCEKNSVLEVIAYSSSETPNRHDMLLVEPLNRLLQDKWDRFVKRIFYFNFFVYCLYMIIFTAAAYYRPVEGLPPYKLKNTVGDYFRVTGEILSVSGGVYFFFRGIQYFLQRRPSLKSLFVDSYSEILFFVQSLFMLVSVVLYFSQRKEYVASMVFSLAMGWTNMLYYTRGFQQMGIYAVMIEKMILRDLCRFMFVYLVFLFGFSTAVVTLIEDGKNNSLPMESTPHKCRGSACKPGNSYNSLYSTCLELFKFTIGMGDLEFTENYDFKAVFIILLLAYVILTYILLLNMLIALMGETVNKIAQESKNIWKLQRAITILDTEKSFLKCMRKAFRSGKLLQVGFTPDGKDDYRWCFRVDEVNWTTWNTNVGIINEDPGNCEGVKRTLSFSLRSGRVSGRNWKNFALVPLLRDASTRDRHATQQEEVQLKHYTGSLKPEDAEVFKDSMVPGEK
T1 sequence (Q8NER1 whole entry): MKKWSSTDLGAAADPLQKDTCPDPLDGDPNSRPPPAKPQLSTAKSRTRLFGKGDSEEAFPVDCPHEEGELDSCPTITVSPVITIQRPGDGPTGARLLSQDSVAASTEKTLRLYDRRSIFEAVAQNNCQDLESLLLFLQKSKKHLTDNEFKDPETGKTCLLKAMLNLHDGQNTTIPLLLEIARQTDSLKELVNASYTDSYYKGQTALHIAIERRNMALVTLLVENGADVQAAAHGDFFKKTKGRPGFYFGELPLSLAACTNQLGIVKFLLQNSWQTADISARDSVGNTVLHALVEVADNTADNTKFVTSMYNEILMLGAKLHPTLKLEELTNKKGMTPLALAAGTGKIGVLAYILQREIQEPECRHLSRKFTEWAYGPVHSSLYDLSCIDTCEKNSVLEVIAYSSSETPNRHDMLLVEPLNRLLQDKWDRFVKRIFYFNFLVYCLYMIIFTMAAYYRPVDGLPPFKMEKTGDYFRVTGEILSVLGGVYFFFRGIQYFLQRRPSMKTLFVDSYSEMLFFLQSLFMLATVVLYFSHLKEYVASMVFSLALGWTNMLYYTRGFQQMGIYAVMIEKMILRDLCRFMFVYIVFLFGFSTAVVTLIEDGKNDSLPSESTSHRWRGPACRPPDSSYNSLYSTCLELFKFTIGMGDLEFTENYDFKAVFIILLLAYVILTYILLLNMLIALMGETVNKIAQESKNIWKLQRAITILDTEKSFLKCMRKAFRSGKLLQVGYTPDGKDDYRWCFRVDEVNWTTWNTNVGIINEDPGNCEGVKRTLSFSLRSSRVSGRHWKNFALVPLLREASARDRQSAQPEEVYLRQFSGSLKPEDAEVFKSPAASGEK
VR1/TRPV1 receptor, sequence (Q8NER1 whole entry): as above

`CC1CCN(c2nc(C(F)(F)F)ccc2CNC(=O)C(C)c2ccc3[nH]cnc3c2)CC1` (stereo not drawn) [Example 13, 2-(1H-benzoimidazol-5-yl)-N-(4-methyl-6′-trifluoromethyl-3,4,5,6-tetrahydro-2H-[1,2′]bipyridinyl-3′-ylmethyl)-propionamide] registered a Ki in assay [1] of 7 nM. Besides, at VR1/TRPV1 receptor, the “IC50 (Human) following pH-stimulus” value was “Ne”. Moreover, the “Inhibition Formaldehyde test” value in the assay on male mice (NMRI) is reported as 0.3 per os 25%.
In assay [1], `CCCCOc1nc(C(C)(C)C)ccc1CNC(=O)C(C)c1ccc2[nH]cnc2c1` (stereo not drawn) [Example 23, 2-(1H-benzoimidazol-5-yl)-N-(2-butoxy-6-tert.-butyl-pyridin-3-ylmethyl)-propionamide] yielded a Ki of 15.3 nM. Further, at VR1/TRPV1 receptor, the “IC50 (Human) following pH-stimulus” value is reported as “Ne”. Further, in the assay with male mice (NMRI), the “Inhibition Formaldehyde test” value was 0.3 per os 13%.
`CC1CCN(c2nc(C(F)(F)F)ccc2CNC(=O)Cc2ccc3c(c2)OCCO3)CC1` [Example 58, 2-(2,3-dihydrobenzo[b][1,4]dioxin-6-yl)-N-((2-(4-methylpiperidin-1-yl)-6-(trifluoromethyl)pyridin-3-yl)methyl)acetamide]: the values for the Ki in assay [2] and in assay [1] were 60 nM and 27.8 nM, respectively. Further, the “IC50 (Human) following pH-stimulus” value at VR1/TRPV1 receptor is given as “ne”.
As to `O=C(Cc1ccc2c(c1)OCCO2)NCc1ccc(C(F)(F)F)nc1SC1CCCCC1` [Example 59, N-((2-(cyclohexylthio)-6-(trifluoromethyl)pyridin-3-yl)methyl)-2-(2,3-dihydrobenzo[b][1,4]dioxin-6-yl)acetamide], the Ki in assay [2] turned out to be 5.7 nM; in assay [1], 3.5 nM. Moreover, the “IC50 (Human) following pH-stimulus” value against VR1/TRPV1 receptor is “ne”.
Take `CC1CCN(c2nc(C(F)(F)F)ccc2CNC(=O)C(C)c2ccc3c(c2)OCO3)CC1` (stereo not drawn) [Example 60, 2-(benzo[d][1,3]dioxol-5-yl)-N-((2-(4-methylpiperidin-1-yl)-6-(trifluoromethyl)pyridin-3-yl)methyl)propanamide]: the Ki in assay [2] is 45.8 nM; in assay [1], 26 nM. In addition, the “IC50 (Human) following pH-stimulus” value against VR1/TRPV1 receptor is recorded as “ne”.
